We go through 32 molecules from BindingDB's records for patent US117730 (Glaxosmithkline Intellectual Property Development, 2023).

The target in the test is T1, Furin [108-574] (Homo sapiens, UniProt P09958).
T1 construct: 108-574
T1 sequence (P09958 108-574): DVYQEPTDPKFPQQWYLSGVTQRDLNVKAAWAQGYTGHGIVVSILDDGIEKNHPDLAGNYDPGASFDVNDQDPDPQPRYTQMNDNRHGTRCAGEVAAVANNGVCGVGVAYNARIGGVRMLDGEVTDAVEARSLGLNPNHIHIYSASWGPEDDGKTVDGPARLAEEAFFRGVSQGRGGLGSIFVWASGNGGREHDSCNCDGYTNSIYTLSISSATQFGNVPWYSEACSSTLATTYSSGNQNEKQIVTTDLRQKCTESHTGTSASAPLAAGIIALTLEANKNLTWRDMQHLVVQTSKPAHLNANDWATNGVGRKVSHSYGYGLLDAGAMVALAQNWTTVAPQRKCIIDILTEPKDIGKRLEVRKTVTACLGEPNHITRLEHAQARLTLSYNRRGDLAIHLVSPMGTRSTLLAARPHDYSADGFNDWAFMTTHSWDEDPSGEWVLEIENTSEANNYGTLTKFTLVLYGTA
The experiment in a line: Furin Enzyme Assay. How it is done: Reactions were performed in black 384-well polystyrene low volume plates (Greiner). […] Compounds of the invention were dissolved in DMSO (1.0 mM) and serially diluted 1 to 3 with DMSO through eleven dilutions to provide a final compound concentration range from 0.00017 to 10 μM. 0.05 μL of each concentration was transferred to the corresponding well of an assay plate, and then 5 μL of 40 pM furin enzyme in assay buffer (100 mM HEPES pH7.5, 1 mM CaCl2 and 0.005% Triton X-100) was added using a Multidrop Combi (Thermo) to the compound plates, and mixed by inversion. […] The plates were centrifuged at 500×g for 1 minute and incubated at room temperature for two hours. Enzyme inhibition is then quantified using an Envision instrument (PerkinElmer).
As to `CNC(=O)OCC1CCN(Cc2cc(Oc3cnc(N4CCN(CCC(=O)O)CC4)nc3)nc(-c3cc(Cl)cc(Cl)c3)c2)CC1` [US11773078, Example 248], the IC50 was 0.032 nM.
Molecule `CC(=O)NCC1CCN(Cc2cc(Oc3ccc(N4CCN(CCCS(C)(=O)=O)CC4)nc3)nc(-c3cc(Cl)cc(Cl)c3)c2)CC1` [US11773078, Example 251] returned an IC50 of less than 0.158 nM.
`CC(=O)NCC1CCN(Cc2cc(Oc3ccc(N4C[C@H](C)N(CCS(C)(=O)=O)C[C@@H]4C)nc3)nc(-c3cc(Cl)cc(Cl)c3)c2)CC1` [US11773078, Example 183] registered an IC50 of 0.025 nM.
Regarding `CN1C2CC1CN(c1ncc(Oc3cc(CN4CCC(CC(=O)O)CC4)cc(-c4cc(Cl)cc(Cl)c4)n3)cn1)C2` [US11773078, Example 228], half-maximal inhibition (IC50) required 2.51 nM.
To `CC(=O)NCC1CCN(Cc2cc(Cc3cnc(N4CC5CCC(C4)N5C)nc3)nc(-c3cc(Cl)cc(Cl)c3)c2)CC1` [US11773078, Example 71] belongs 0.2 nM; to `CN1CCN(c2ncc(Oc3cc(CN4CC[C@@H]5[C@H](CC4)[C@H]5C(=O)O)cc(-c4cc(Cl)cc(Cl)c4)n3)cn2)CC1` [US11773078, Example 321], 0.794 nM; to `COC(=O)NCC1CCN(Cc2cc(Oc3cnc(N4CC5CCC(C4)N5CCC(=O)O)nc3)nc(-c3cc(Cl)cc(Cl)c3)c2)CC1` [US11773078, Example 56], 0.032 nM.
Then `CC(=O)NCC1CCN(Cc2cc(Oc3cnc(C4CCN(C(C)CC(=O)O)CC4)nc3)nc(-c3cc(Cl)cc(Cl)c3)c2)CC1` (configuration not stated) [US11773078, Example 282], with 0.2 nM; and `CNC(=O)NCC1CCN(Cc2cc(Cc3cnc(N4CCN(CCC(C)S(C)(=O)=O)CC4)nc3)nc(-c3cc(Cl)cc(Cl)c3)c2)CC1` (configuration not stated) [US11773078, Example 220], with 0.063 nM; and `CNC(=O)NCC1CCN(Cc2cc(Oc3ccc(N4CCN(CCCS(N)(=O)=O)CC4)nc3)nc(-c3cc(Cl)cc(Cl)c3)c2)CC1` [US11773078, Example 260], with 0.2 nM.
Then `CC(=O)NCC1CCN(Cc2cc(Oc3cnc(N4CCN(CCC5(C(=O)O)CC5)CC4)nc3)cc(-c3cc(Cl)cc(Cl)c3)c2)CC1` [US11773078, Example 173], with 0.398 nM.
For the molecule `CC(=O)NCC1CCN(Cc2cc(Oc3cnc(N4CCN(CCCO)CC4)nc3)cc(-c3cc(Cl)cc(Cl)c3)c2)CC1` [US11773078, Example 113], the IC50 was less than 0.158 nM.
Then `CNC(=O)NCC1CCN(Cc2cc(Oc3cnc(N4CCN(CCO)CC4)nc3)cc(-c3cc(Cl)cc(Cl)c3)c2)CC1` [US11773078, Example 313], with less than 0.158 nM.
As to `CN1CCCN(c2ccc(Oc3cc(CN4CC[C@@H]5[C@H](CC4)[C@H]5C(=O)O)cc(-c4cc(Cl)cc(Cl)c4)n3)nn2)CC1` [US11773078, Example 362], half-maximal inhibition (IC50) required 0.032 nM.
Then `CC(=O)NCC1CCN(Cc2cc(Oc3cnc(N4CCN(C(=O)CCN)CC4)nc3)cc(-c3cc(Cl)cc(Cl)c3)c2)CC1` [US11773078, Example 170], with 0.794 nM; and `CNC(=O)OCC1CCN(Cc2cc(Oc3ccc(N4CCN(C)CC4)nc3)nc(-c3cc(Cl)cc(Cl)c3)c2)CC1` [US11773078, Example 67], with 1.58 nM; and `CC(=O)NCC1CCN(Cc2cc(Cc3ccc(N4CCN(CCC(=O)O)CC4)nn3)nc(-c3cc(Cl)cc(Cl)c3)c2)CC1` [US11773078, Example 169], with 0.032 nM.
To `CC(=O)NCC1CCN(Cc2cc(Oc3cnc(N4CCN(CCS(=O)(=O)O)CC4)nc3)nc(-c3cc(Cl)cc(Cl)c3)c2)CC1` [US11773078, Example 287] belongs 2 nM; to `CC(=O)NCC1CCN(Cc2cc(Cc3cnc(N4CCN(C(C)CCC(=O)O)CC4)nc3)nc(-c3cc(Cl)cc(Cl)c3)c2)CC1` (configuration not stated) [US11773078, Example 215], 0.398 nM; to `COC(=O)NC(=O)CCN1CCN(c2ncc(Cc3cc(CN4CCC(CNC(C)=O)CC4)cc(-c4cc(Cl)cc(Cl)c4)c3)cn2)CC1` [US11773078, Example 172], 0.251 nM.
Then `CC(C)(O)CCC1CCN(Cc2cc(Oc3ccc(N4CCNCC4)nc3)nc(-c3cc(Cl)cc(Cl)c3)c2)CC1` [US11773078, Example 120], with 2 nM; and `CN1CCC(c2ncc(Oc3cc(CN4CCC(CC(=O)O)CC4)cc(-c4cc(Cl)cc(Cl)c4)n3)cn2)CC(F)C1` (configuration not stated) [US11773078, Example 147], with 0.631 nM.
For `CC(O)CCN1CCC(c2cnc(Cc3cc(CN4CCC(CC(N)=O)CC4)cc(-c4cc(Cl)cc(Cl)c4)n3)cn2)CC1` (configuration not stated) [US11773078, Example 164], the IC50 was 3.98 nM.
To `O=C(O)CC1CCN(Cc2cc(Oc3ccc(C4C[C@@H]5C[C@H]4CN5)nc3)nc(-c3cc(Cl)cc(Cl)c3)c2)CC1` (some centres not stated) [US11773078, Example 187] belongs 1.26 nM; to `C[C@H](CC1CCN(Cc2cc(Oc3ccc(N4CCN(C)CC4)nn3)nc(-c3cc(Cl)cc(Cl)c3)c2)CC1)C(=O)O` [US11773078, Example 364], 0.2 nM.
Molecule `CC(=O)NCC1CCN(Cc2cc(Oc3ccc(N4C[C@H](CN)[C@@H](O)C4)nc3)nc(-c3cc(Cl)cc(Cl)c3)c2)CC1` [US11773078, Example 184] showed an IC50 of 0.251 nM.
For `CN1C2CCC1CN(c1ncc(Cc3nc(-c4cc(Cl)cc(Cl)c4)cc(CN4CCC(CC(=O)O)CC4)c3F)cn1)C2` [US11773078, Example 378], the IC50 came to 2 nM.
`O=C(O)CCC1CCN(Cc2cc(Oc3cnc(N4CCN(CCO)CC4)nc3)cc(-c3cc(Cl)cc(Cl)c3)c2)CC1` [US11773078, Example 114]: the IC50 is less than 0.158 nM.
For `CNC(=O)OCC1CCN(Cc2cc(Oc3cnc(N4CCN(C(C)CCC(=O)O)CC4)nc3)nc(-c3cc(Cl)cc(Cl)c3)c2)CC1` (configuration not stated) [US11773078, Example 208], half-maximal inhibition (IC50) was put at 0.013 nM.
Then `CNC(=O)NCC1CCN(Cc2cc(Oc3cnc(N4CCN(C)CC4)nc3)nc(-c3cc(Cl)cc(Cl)c3)c2)CC1` [US11773078, Example 70], with 0.032 nM.
On to `NS(=O)(=O)CCC1CCN(Cc2cc(Oc3ccc(N4CCN(CCC(=O)O)CC4)nc3)nc(-c3cc(Cl)cc(Cl)c3)c2)CC1` [US11773078, Example 277], for which half-maximal inhibition (IC50) was put at 0.032 nM.
In turn, `CNC(=O)NCC1CCN(Cc2cc(Oc3cnc(N4CCN(CCC(C)[S+](C)[O-])CC4)nc3)nc(-c3cc(Cl)cc(Cl)c3)c2)CC1` (configuration not stated) [US11773078, Example 17] returned an IC50 of 0.032 nM.
